The source of these data is PMC4457358, “Structure–activity studies in the development of a hydrazone based inhibitor of adipose-triglyceride lipase (ATGL)” (Bioorganic & Medicinal Chemistry, 2015).

A word on the melting point: it is the temperature of the solid-liquid transition. What is called IC50 is the concentration that gives 50% inhibition.

Like-named read-outs stand apart in the source and are kept apart here.

One data set concerns the target T1, murine ATGL (Mus musculus, UniProt Q8BJ56).
T1 construct: expressed in transfected cells; host or cells: COS-7 (ATCC CRL-1651), transient transfection with Metafectene; crude lysate after 1000 x g spin
T1 sequence (Q8BJ56 1-486): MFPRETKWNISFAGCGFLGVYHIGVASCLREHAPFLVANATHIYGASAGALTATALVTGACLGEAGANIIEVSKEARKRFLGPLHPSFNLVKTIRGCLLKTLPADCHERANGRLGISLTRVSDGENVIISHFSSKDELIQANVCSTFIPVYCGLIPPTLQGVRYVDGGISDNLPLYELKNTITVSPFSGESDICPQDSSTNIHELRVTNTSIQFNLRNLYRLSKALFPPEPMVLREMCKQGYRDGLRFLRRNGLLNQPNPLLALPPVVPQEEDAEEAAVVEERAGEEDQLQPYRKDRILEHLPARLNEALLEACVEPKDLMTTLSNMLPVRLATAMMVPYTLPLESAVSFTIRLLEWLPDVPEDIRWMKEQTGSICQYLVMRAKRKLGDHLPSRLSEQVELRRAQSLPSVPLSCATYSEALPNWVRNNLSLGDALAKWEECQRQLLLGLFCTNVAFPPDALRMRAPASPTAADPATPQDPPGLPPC
The data set is described as follows: Triglyceride hydrolase activity assay with COS7-cell lysate overexpressing recombinant murine ATGL, radiolabelled triolein substrate.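 For all read-outs here: radioactivity from the triolein substrate quantified by liquid scintillation counting after phase separation, reflecting triglyceride hydrolase activity of murine ATGL in lysates of transfected COS-7 cells.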 In kind it is biochemical. The arrangement: IC50 (%): unit not given here. The settings on record: for inhibition at 200 µM: 1 h, read-out: I200 (%); for biological activity against ATGL (in words) / IC50: COS7-cell lysate overexpressing murine ATGL; for IC50 (%): COS7-cell lysate overexpressing recombinant murine ATGL, increasing inhibitor concentrations.

The mark [1] stands for this setting: ATGL-inhibition efficiency at 200 μM inhibitor.

Method for murine ATGL: All synthesized test compounds were screened for their efficiency to inhibit ATGL activity in vitro in an assay using radiolabelled triolein as substrate.[20] As ATGL cannot be purified, the assays were performed with COS7-cell lysates from cells overexpressing recombinant murine ATGL. For the determination of the IC50-value inhibitors were administered with increasing concentrations to the enzyme and its substrate. To determine the ATGL-inhibition efficiency at 200 μM (I200), 200 μM inhibitor was administered to the enzyme and its substrate.
For the determination of TG hydrolase activity cell lysates of COS-7 cells overexpressing recombinant murine ATGL were used. Therefore, monkey embryonic kidney cells (Cos-7; ATCC CRL-1651) were cultivated in Dulbeccos modified eagles medium (DMEM, GIBCO, Invitrogen Corp., Carlsbad, CA), containing 10% fetal calf serum (FCS, Sigma–Aldrich) and antibiotics (100 IU/mL penicillin and 100 μg/mL streptomycin) at standard conditions (37 °C, 5% CO2, 95% humidified atmosphere). Cells were transfected with 1 μg DNA complexed to Metafectene (Biontex GmbH, Munich, Germany) in serum free DMEM. After 4 h the medium was replaced by DMEM supplemented with 10% FCS. For the preparation of cell lysates, cells were washed with 1× phosphate buffered saline, collected using a cell scraper, and disrupted in buffer A (0.25 M sucrose, 1 mM EDTA, 1 mM dithiothreitol, 20 μg/mL leupeptine, 2 μg/mL antipain, 1 μg/mL pepstatin, pH 7.0) by sonication (Virsonic 475, Virtis, Gardiner, NJ). Nuclei and unbroken cells were removed by centrifugation (1000×g, 4 °C, for 10 min). Protein concentration of the cell lysates were determined by Bio-Rad protein assay according to the manufacturer’s protocol (Bio-Rad 785, Bio-Rad Laboratories, Munich, Germany), using BSA as standard.
The triolein (TO) substrate was prepared as described. […] In brief, 330 μM triolein (40,000 cpm/nmol) (GE Healthcare) was emulsified with 45 μM phosphatidylcholine/phosphatidylinositol (3:1) (Sigma) in 100 mM potassium phosphate buffer (pH 7.0) by sonication (Virsonic 475, Virtis) and was adjusted to 5% (w/v) fatty acid free bovine serum albumin (BSA, Sigma). 100 μL (20 μg protein) cell lysate or 2 μl purified recombinant LPL (Sigma–Aldrich) were incubated with 100 μL TO substrate in the presence or in the absence of inhibitors in a water bath for 1 h at 37 °C. After incubation, the reaction was terminated by adding 3.25 mL of methanol/chloroform/heptane (10:9:7) and 1 mL of 0.1 M potassium carbonate, 0.1 M boric acid (pH 10.5). After centrifugation (800 g, 15 min), the radioactivity in 1 mL of the upper phase was determined by liquid scintillation counting.

On to `C(=N\N1CCN(c2ccccc2)CC1)/c1cccc2ccccc12` [Compound 2j, (E)-N-(Naphthalene-1-methylen)-4-phenylpiperazin-1-amine], for which the melting point came out at 118 °C. On murine ATGL (setting [1]), the inhibition at 200 µM is 49%.
For the compound `Oc1ccc(/C=N/N2CCCN(c3ccccc3)CC2)c(O)c1` [Compound 3j, (E)-4-((4-Phenyl-1,4-diazepan-1-ylimino)methyl)benzene-1,3-diol], the inhibition at 200 µM on murine ATGL (setting [1]) is 87%.
The same measure, in the same setting: then `CCCC/C=N/N1CCN(c2ccccc2)CC1` [Compound 2a, (E)-N-Pentyliden-4-phenylpiperazin-1-amine], with 12%.
Take `O=[N+]([O-])c1ccccc1/C=N/N1CCN(c2ccccc2)CC1` [Compound 1p, (E)-N-(2-Nitrobenzylidene)-4-phenylpiperazin-1-amine]: the melting point was 103 to 106 °C. The inhibition at 200 µM on murine ATGL (setting [1]) is 60%.
Turning to `C(=N\N1CCN(c2ccccc2)CC1)/c1cccnc1` [Compound 2f, (E)-4-Phenyl-N-(pyridine-3-ylmethylen)piperazin-1-amine], the melting point fell in the range of 111 to 113 °C. In addition, the inhibition at 200 µM on murine ATGL (setting [1]) is 46%.
`COc1ccc(/C=N/N2CCN(c3ccccc3)CC2)cc1OC` [Compound 1b, (E)-N-(3,4-Dimethoxybenzylidene)-4-phenylpiperazin-1-amine] had a melting point of 153 to 154 °C. For the same compound, the inhibition at 200 µM at murine ATGL (setting [1]) is 65%.
`COc1cc(OC)c(OC)cc1/C=N/N1CCN(c2ccccc2)CC1` [Compound 1k, (E)-4-Phenyl-N-(2,4,5-trimethoxybenzyliden)piperazin-1-amine] registered a melting point of 153 to 156 °C. Besides, the inhibition at 200 µM on murine ATGL (setting [1]) worked out at 43%.
In the same order, the values of `Oc1ccc(/C=N/N2CCN(c3ccccc3)CC2)cc1` [Compound 1g, (E)-4-((4-Phenylpiperazin-1-ylimino)methyl)phenol] are 192 °C (dec.) and 85%.
Consider `Clc1ccc(/C=N/N2CCN(c3ccccc3)CC2)cc1Cl` [Compound 1n, (E)-N-(3,4-Dichlorobenzylidene)-4-phenylpiperazin-1-amine], for which the melting point fell in the range of 176 to 178 °C. Moreover, the inhibition at 200 µM on murine ATGL (setting [1]) is 20%. In addition, the “biological activity against ATGL (in words)” value (“biological activity” for short) at murine ATGL was “inactive”.
In the case of `O=c1[nH]c2ccc(/C=N/N3CCN(c4ccccc4)CC3)cc2[nH]1` [Compound 1z, (E)-5-((4-Phenylpiperazin-1-ylimino)methyl)-1H-benzo[d]imidazol-2(3H)-one], the melting point was 320 to 330 °C (dec.). Also, the inhibition at 200 µM at murine ATGL (setting [1]) was 16%.
“(E)-4-Phenyl-N-(4-propoxybenzylidene)piperazin-1-amine [Compound 1i]”: the “I200 (%)” value on murine ATGL (setting [1]) is given as 14%. Moreover, the “IC50 (%)” value at murine ATGL is greater than 200.
As to `C(=N\N1CCN(c2ccccc2)CC1)/c1ccc2ccccc2c1` [Compound 2h, (E)-N-(Naphthalene-2-ylmethylen)-4-phenylpiperazin-1-amine], the melting point is 195 to 198 °C (dec.). The inhibition at 200 µM on murine ATGL (setting [1]) is less than 1%.
Take `Oc1ccc(/C=N/N2CCN(CCc3ccccc3)CC2)c(O)c1` [Compound 3e, (E)-4-((4-Phenethylpiperazin-1-ylimino)methyl)benzene-1,3-diol]: the melting point fell in the range of 211 to 214 °C. Also, the inhibition at 200 µM at murine ATGL (setting [1]) stood at 14%.
`Oc1ccc(CN2CCN(c3ccccc3)CC2)cc1O` [Compound 8, 4-((4-Phenylpiperazin-1-yl)methyl)benzene-1,2-diol]: the melting point lay in the range of 100 to 102 °C. Also, on murine ATGL, the inhibition at 200 µM was found to be 20% and the “biological activity” value was “biologically inactive”.
Take `Oc1ccc(/C=N/N2CCN(C3CCCC3)CC2)c(O)c1` [Compound 3g, (E)-4-((4-Cyclopentylpiperazin-1-ylimino)methyl)benzene-1,3-diol]: the melting point was 237 to 239 °C (dec.). Moreover, at murine ATGL (setting [1]), the inhibition at 200 µM amounted to 36%.
On to `Oc1ccc(/C=N/N2CCN(c3ccncc3)CC2)c(O)c1` [Compound 3a, (E)-4-((4-(Pyridine-4-yl)piperazin-1-ylimino)methyl)benzene-1,3-diol], for which the melting point was 270 to 273 °C (dec.). In addition, the inhibition at 200 µM at murine ATGL (setting [1]) was 19%.
Turning to `COc1cc(/C=N/N2CCN(c3ccccc3)CC2)cc(OC)c1OC` [Compound 1l, (E)-4-Phenyl-N-(3,4,5-trimethoxybenzylidene)piperazin-1-amine], the melting point was 93 to 98 °C. In addition, at murine ATGL (setting [1]), the inhibition at 200 µM is 41%.
`Oc1ccc(/C=N/N2CCC(Cc3ccccc3)CC2)c(O)c1` [Compound 3i, (E)-4-((4-benzylpiperidine-1-ylimino)methyl)benzene-1,3-diol] displayed a melting point of 138 to 141 °C. Besides, the inhibition at 200 µM at murine ATGL (setting [1]) worked out at 26%.
Compound `O=C(Oc1ccc(F)c(F)c1)N1CCN(c2ccccc2)CC1` [Compound 14, 3,4-Difluorophenyl-4-phenylpiperazin-1-carboxylate] came in with a melting point of 94 to 96 °C. Further, the inhibition at 200 µM at murine ATGL (setting [1]) came to 57%. Besides, the IC50 at murine ATGL was determined as 110 µM.
Compound `Cc1ccc(/C=N/N2CCN(c3ccccc3)CC2)cc1` [Compound 1t, (E)-N-(4-Methylbenzylidene)-4-phenylpiperazin-1-amine] showed a melting point of 184 to 186 °C. In addition, at murine ATGL (setting [1]), the inhibition at 200 µM was found to be 22%. On murine ATGL, the “biological activity” value is “inactive”.
`Oc1ccc(/C=N/N2CCN(C3CCCCC3)CC2)c(O)c1` [Compound 3f, (E)-4-((4-Cyclohexylpiperazin-1-ylimino)methyl)benzene-1,3-diol]: the melting point was 247 to 249 °C (dec.). Also, the inhibition at 200 µM on murine ATGL (setting [1]) worked out at 25%.
Turning to `N#Cc1ccc(/C=N/N2CCN(c3ccccc3)CC2)cc1` [Compound 1s, (E)-4-((4-Phenylpiperazin-1-ylimino)methyl)benzonitrile], the inhibition at 200 µM at murine ATGL (setting [1]) stood at 76%. For the same compound, the IC50 on murine ATGL came to 50 µM.
Consider `Cc1cccc(N2CCN(/N=C/c3ccc(O)cc3O)CC2)c1` [Compound 3c, (E)-4-((4-m-Tolylpiperazin-1-ylimino)methyl)benzene-1,3-diol], for which the inhibition at 200 µM on murine ATGL (setting [1]) stood at 44%.
With “(E)-3-((4-Phenylpiperazin-1-ylimino)methyl)benzonitrile [Compound 1r]”, the “I200 (%)” value at murine ATGL (setting [1]) was determined as 60%. In addition, the “IC50 (%)” value at murine ATGL is recorded as 120.
With `CC(=O)Nc1ccc(/C=N/N2CCN(c3ccccc3)CC2)cc1` [Compound 1v, (E)-N-(4-((4-Phenylpiperazin-1-ylimino)methyl)phenyl)acetamide], the inhibition at 200 µM at murine ATGL (setting [1]) worked out at 14%.
The same measure, in the same setting: then `COc1cc(/C=N/N2CCN(c3ccccc3)CC2)ccc1O` [Compound 1d, (E)-2-Methoxy-4-((4-phenylpiperazin-1-ylimino)methyl)phenol], with 82%; and `CN(CCO)c1ccc(/C=N/N2CCN(c3ccccc3)CC2)cc1` [Compound 1w, (E)-2-(Methyl(4-((4-phenylpiperazin-1-ylimino)methyl)phenyl)amino)ethanol], with 5%.
Take “(E)-N-(4-Phenoxybenzylidene)-4-phenylpiperazin-1-amine [Compound 1j]”: the “I200 (%)” value at murine ATGL (setting [1]) is recorded as 24%. In addition, the “IC50 (%)” value on murine ATGL is greater than 200.
On to `COc1ccc(C(=O)NN2CCN(c3ccccc3)CC2)cc1OC` [Compound 10, 3,4-Dimethoxy-N-(4-phenylpiperazin-1-yl)benzamide], for which the inhibition at 200 µM at murine ATGL (setting [1]) amounted to 38%. Moreover, the “biological activity” value on murine ATGL is “inactive”.
